{
  "source": "patent US10538487B2",
  "about": "“Sulfonylureas and related compounds and use of same” (priority 2015, dated 2020)",
  "data": [
    {"target": "NLRP3 inflammasome (Mus musculus, UniProt Q8R4B8)", "sequence (Q8R4B8 whole entry)": "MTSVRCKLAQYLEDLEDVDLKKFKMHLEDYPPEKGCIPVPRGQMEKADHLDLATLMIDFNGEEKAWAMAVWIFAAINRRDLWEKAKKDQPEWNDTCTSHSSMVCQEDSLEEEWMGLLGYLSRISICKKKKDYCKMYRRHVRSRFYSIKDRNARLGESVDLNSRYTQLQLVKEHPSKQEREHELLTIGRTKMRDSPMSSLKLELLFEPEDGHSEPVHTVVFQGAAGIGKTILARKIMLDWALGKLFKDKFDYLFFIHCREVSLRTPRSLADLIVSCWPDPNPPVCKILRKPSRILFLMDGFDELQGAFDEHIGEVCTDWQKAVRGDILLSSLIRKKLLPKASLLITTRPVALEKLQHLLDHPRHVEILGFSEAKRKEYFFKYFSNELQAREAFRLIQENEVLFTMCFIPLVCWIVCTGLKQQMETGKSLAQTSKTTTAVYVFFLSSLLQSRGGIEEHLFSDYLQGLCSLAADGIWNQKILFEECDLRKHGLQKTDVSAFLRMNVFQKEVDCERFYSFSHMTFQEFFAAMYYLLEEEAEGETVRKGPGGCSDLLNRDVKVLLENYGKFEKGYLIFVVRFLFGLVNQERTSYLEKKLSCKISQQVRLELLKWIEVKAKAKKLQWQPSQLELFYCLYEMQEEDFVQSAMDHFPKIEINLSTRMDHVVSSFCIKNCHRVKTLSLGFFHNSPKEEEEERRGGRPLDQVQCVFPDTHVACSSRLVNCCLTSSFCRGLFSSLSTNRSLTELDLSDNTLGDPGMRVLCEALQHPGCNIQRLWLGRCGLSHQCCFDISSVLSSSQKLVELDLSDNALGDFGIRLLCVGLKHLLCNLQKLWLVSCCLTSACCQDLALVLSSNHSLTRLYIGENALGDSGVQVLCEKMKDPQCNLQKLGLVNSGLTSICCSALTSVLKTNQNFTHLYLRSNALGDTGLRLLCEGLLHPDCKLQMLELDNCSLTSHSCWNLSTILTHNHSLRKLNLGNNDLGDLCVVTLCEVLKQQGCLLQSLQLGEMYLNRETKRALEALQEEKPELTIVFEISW", "assay": "Inhibition of IL-1β release, NLRP3 inflammasome activation assay in BMDM", "assay_type": "cell-based", "settings": "commercial compounds (Table 9), read-out: BMDM IC50 vs NLRP3", "experimental": "(§1) The following assays can be used to determine inhibitory activity of test compounds on the NLRP3 inflammasome using common stimuli such as adenosine triphosphate, nigericin, LeuLeu-OMe or monosodium urate crystals (MSU).\n(§2) Mouse bone marrow-derived macrophages (BMDM) were derived from bone marrow progenitors isolated from the femurs and tibias of C57BL/6 mice.\n(§3) BMDM are seeded at 1×10^5/ml. The following day the overnight medium is replaced and cells are stimulated with Ultrapure lipopolysaccharide from Escherichia coli K12 strain (InvivoGen) for 3 h. Medium is removed and replaced with serum free medium (SFM) containing test compound 30 min prior to NLRP3 stimulation. […] ATP can be sourced from Sigma Aldrich, nigericin and MSU from Invivogen and LeuLeu-Ome from Chem-Impex International.\n(§4) For ELISA and cell death assays cells are seeded in 96 well plates. Supernatants are removed and analysed using ELISA kits according to the manufacturer's instructions (DuoSet® R&D Systems, ReadySetGo!® eBioscience, BD OptEIA™, or Perkin Elmer AlphaLISA®). Cell death is assessed by measurement of LDH release relative to a 100% cell lysis control using the CytoTox96® non-radioactive cytotoxicity assay (Promega).", "units": {"IC50": "µM"}, "values": [
      {"compound": "Cc1cc(C(=O)NCCc2ccc(S(N)(=O)=O)cc2)no1", "note": "[Glisoxepide Precursor, reference compound]", "IC50": "> 10000"}
    ]},
    {"target": "NLRP3 inflammasome (Mus musculus, UniProt Q8R4B8)", "assay": "Inhibition of IL-1β release, NLRP3 inflammasome activation assay in BMDM", "assay_type": "cell-based", "settings": "inhibition of IL-1β release, class symbols, read-out: Avg. IL-1β IC50 Murine BMDM", "experimental": "as §1, §2, §3, §4", "units": {"IC50": "µM"}, "values": [
      {"compound": "CC(C)(O)c1coc(S(=O)(=O)NC(=O)Nc2c3c(cc4c2OCC4)OCC3)c1", "note": "[4-(2-hydroxypropan-2-yl)-N-((2,3,6,7-tetrahydrobenzo[1,2-b:4,5-b′]difuran-4-yl)carbamoyl)furan-2-sulfonamide]", "IC50": "< 1"},
      {"compound": "CC(C)(O)c1coc(S(=O)(=O)NC(=O)Nc2c3ccoc3cc3ccoc23)c1", "note": "[N-(benzo[1,2-b:4,5-b′]difuran-4-ylcarbamoyl)-4-(2-hydroxypropan-2-yl)furan-2-sulfonamide]", "IC50": "< 0.1"},
      {"compound": "O=C(Nc1c2c(cc3c1CCC3)CCC2)NS(=O)(=O)c1cn2c(n1)CCC2", "note": "[N-((1,2,3,5,6,7-hexahydro-s-indacen-4-yl)carbamoyl)-6,7-dihydro-5H-pyrrolo[1,2-a]imidazole-2-sulfonamide]", "IC50": "< 1"},
      {"compound": "COc1ccc(OC)c(NC(=O)NS(=O)(=O)c2cc(C(C)(C)O)co2)c1", "note": "[N-((2,5-dimethoxyphenyl)carbamoyl)-4-(2-hydroxypropan-2-yl)furan-2-sulfonamide]", "IC50": "< 10"},
      {"compound": "O=C(Nc1c2c(cc3c1CCC3)CCC2)NS(=O)(=O)c1ccc([N+](=O)[O-])cc1", "note": "[N-((1,2,3,5,6,7-hexahydro-s-indacen-4-yl)carbamoyl)-4-nitrobenzenesulfonamide]", "IC50": "< 0.1"},
      {"compound": "CC(C)c1cc(Cl)cc(C(C)C)c1NC(=O)NS(=O)(=O)c1cccc2nccnc12", "note": "[N-((4-chloro-2,6-diisopropylphenyl)carbamoyl)quinoxaline-5-sulfonamide]", "IC50": "< 0.1"},
      {"compound": "CC(C)(O)c1coc(S(=O)(=O)NC(=O)Nc2c3ccccc3cc3ccccc23)c1", "note": "[N-(anthracen-9-ylcarbamoyl)-4-(2-hydroxypropan-2-yl)furan-2-sulfonamide]", "IC50": "< 10"},
      {"compound": "CC(C)c1cc(Cl)cc(C(C)C)c1NC(=O)NS(=O)(=O)c1ccc2c(c1)CCCC2", "note": "[N-((4-chloro-2,6-diisopropylphenyl)carbamoyl)-5,6,7,8-tetrahydronaphthalene-2-sulfonamide]", "IC50": "< 0.1"},
      {"compound": "CC(C)(O)c1coc(S(=O)(=O)NC(=O)Nc2cccc3c2OCC3)c1", "note": "[N-((2,3-dihydrobenzofuran-7-yl)carbamoyl)-4-(2-hydroxypropan-2-yl)furan-2-sulfonamide]", "IC50": "< 50"},
      {"compound": "CC(C)(O)c1coc(S(=O)(=O)NC(=O)Nc2c(C3CC3)cc(Cl)c3c2CCC3)c1", "note": "[N-((7-chloro-5-cyclopropyl-2,3-dihydro-1H-inden-4-yl)carbamoyl)-4-(2-hydroxypropan-2-yl)furan-2-sulfonamide]", "IC50": "< 0.1"},
      {"compound": "CCOC(=O)c1coc(S(=O)(=O)NC(=O)Nc2c3c(cc4c2CCC4)CCC3)c1", "note": "[ethyl 5-(N-((1,2,3,5,6,7-hexahydro-s-indacen-4-yl)carbamoyl)sulfamoyl)furan-3-carboxylate]", "IC50": "< 1"},
      {"compound": "Cc1cc(Cl)cc(C)c1NC(=O)NS(=O)(=O)c1cc(C(C)(C)O)co1", "note": "[N-((4-chloro-2,6-dimethylphenyl)carbamoyl)-4-(2-hydroxypropan-2-yl)furan-2-sulfonamide]", "IC50": "< 10"},
      {"compound": "CCc1noc2ncc(S(=O)(=O)NC(=O)Nc3c(C(C)C)cc(Cl)cc3C(C)C)cc12", "note": "[N-((4-chloro-2,6-diisopropylphenyl)carbamoyl)-3-ethylisoxazolo[5,4-b]pyridine-5-sulfonamide]", "IC50": "< 10"},
      {"compound": "CC(C)(O)c1coc(S(=O)(=O)NC(=O)Nc2cccc3c2OCCO3)c1", "note": "[N-((2,3-dihydrobenzo[b][1,4]dioxin-5-yl)carbamoyl)-4-(2-hydroxypropan-2-yl)furan-2-sulfonamide]", "IC50": "< 10"},
      {"compound": "CC(C)(O)c1coc(S(=O)(=O)NC(=O)Nc2c3c(cc4c2OCC4)CCC3)c1", "note": "[4-(2-hydroxypropan-2-yl)-N-((3,5,6,7-tetrahydro-2H-indeno[5,6-b]furan-8-yl)carbamoyl)furan-2-sulfonamide]", "IC50": "< 0.1"},
      {"compound": "COc1ccccc1NC(=O)NS(=O)(=O)c1cc(C(C)(C)O)co1", "note": "[4-(2-hydroxypropan-2-yl)-N-((2-methoxyphenyl)carbamoyl)furan-2-sulfonamide]", "IC50": "< 10"},
      {"compound": "CC(C)c1cc(Cl)cc(C(C)C)c1NC(=O)NS(=O)(=O)c1ccc2cc(Cl)ccc2c1", "note": "[6-chloro-N-((4-chloro-2,6-diisopropylphenyl)carbamoyl)naphthalene-2-sulfonamide]", "IC50": "< 0.1"},
      {"compound": "CC(C)(O)c1coc(S(=O)(=O)NC(=O)Nc2c3c(cc4c2CCO4)CCC3)c1", "note": "[4-(2-hydroxypropan-2-yl)-N-((3,5,6,7-tetrahydro-2H-indeno[5,6-b]furan-4-yl)carbamoyl)furan-2-sulfonamide]", "IC50": "< 0.1"},
      {"compound": "COc1ccc2cc(S(=O)(=O)NC(=O)Nc3c(C(C)C)cc(Cl)cc3C(C)C)ccc2c1", "note": "[N-((4-chloro-2,6-diisopropylphenyl)carbamoyl)-6-methoxynaphthalene-2-sulfonamide]", "IC50": "< 0.1"},
      {"compound": "CC(C)c1cc(Cl)cc(C(C)C)c1NC(=O)NS(=O)(=O)c1cnc2ccsc2c1", "note": "[N-((4-chloro-2,6-diisopropylphenyl)carbamoyl)thieno[3,2-b]pyridine-6-sulfonamide]", "IC50": "< 1"}
    ]},
    {"target": "NLRP3 inflammasome (Mus musculus, UniProt Q8R4B8)", "assay": "Inhibition of IL-1β release, NLRP3 inflammasome activation assay in BMDM", "assay_type": "cell-based", "settings": "inhibition of IL-1β release, numeric bounds, read-out: Avg. IL-1β IC50 Murine BMDM", "experimental": "as §1, §2, §3, §4", "units": {"IC50": "µM"}, "values": [
      {"compound": "CC(C)n1ccc(S(=O)(=O)NC(=O)Nc2c(C(=O)N(C)C)cc(Cl)cc2C2CC2)n1", "note": "[5-chloro-3-cyclopropyl-2-(3-((1-isopropyl-1H-pyrazol-3-yl)sulfonyl)ureido)-N,N-dimethylbenzamide]", "IC50": "> 10"},
      {"compound": "COc1cc(Cl)cc(C(F)(F)F)c1NC(=O)NS(=O)(=O)c1ccn(C(C)C)n1", "note": "[N-((4-chloro-2-methoxy-6-(trifluoromethyl)phenyl)carbamoyl)-1-isopropyl-1H-pyrazole-3-sulfonamide]", "IC50": "> 10"},
      {"compound": "Cc1cc(C)nc(NC(=O)NS(=O)(=O)c2ccn(C(C)C)n2)n1", "note": "[N-((4,6-dimethylpyrimidin-2-yl)carbamoyl)-1-isopropyl-1H-pyrazole-3-sulfonamide]", "IC50": "> 10"},
      {"compound": "Cc1cc(Cl)cc(C(F)(F)F)c1NC(=O)NS(=O)(=O)c1cc(C(C)(C)O)co1", "note": "[N-((4-chloro-2-methyl-6-(trifluoromethyl)phenyl)carbamoyl)-4-(2-hydroxypropan-2-yl)furan-2-sulfonamide]", "IC50": "> 10"},
      {"compound": "CC(C)n1ccc(S(=O)(=O)NC(=O)Nc2nc(C(C)(C)C)cc(C(C)(C)C)n2)n1", "note": "[N-((4,6-di-tert-butylpyrimidin-2-yl)carbamoyl)-1-isopropyl-1H-pyrazole-3-sulfonamide]", "IC50": "> 10"}
    ]},
    {"target": "NLRP3 inflammasome (Mus musculus, UniProt Q8R4B8)", "assay": "Inhibition of IL-1β release, NLRP3 inflammasome activation assay in BMDM", "assay_type": "cell-based", "settings": "select compounds of the first aspect (Table 10), read-out: BMDM IC50 vs NLRP3", "experimental": "as §1, §2, §3, §4", "units": {"IC50": "µM"}, "values": [
      {"compound": "Cc1cnc(C(=O)NCCc2ccc(S(=O)(=O)NC(=O)Nc3c4c(cc5c3CCC5)CCC4)cc2)cn1", "note": "[drawing 359]", "IC50": 0.32}
    ]},
    {"target": "NLRP3 inflammasome (Homo sapiens, UniProt Q96P20)", "sequence (Q96P20 whole entry)": "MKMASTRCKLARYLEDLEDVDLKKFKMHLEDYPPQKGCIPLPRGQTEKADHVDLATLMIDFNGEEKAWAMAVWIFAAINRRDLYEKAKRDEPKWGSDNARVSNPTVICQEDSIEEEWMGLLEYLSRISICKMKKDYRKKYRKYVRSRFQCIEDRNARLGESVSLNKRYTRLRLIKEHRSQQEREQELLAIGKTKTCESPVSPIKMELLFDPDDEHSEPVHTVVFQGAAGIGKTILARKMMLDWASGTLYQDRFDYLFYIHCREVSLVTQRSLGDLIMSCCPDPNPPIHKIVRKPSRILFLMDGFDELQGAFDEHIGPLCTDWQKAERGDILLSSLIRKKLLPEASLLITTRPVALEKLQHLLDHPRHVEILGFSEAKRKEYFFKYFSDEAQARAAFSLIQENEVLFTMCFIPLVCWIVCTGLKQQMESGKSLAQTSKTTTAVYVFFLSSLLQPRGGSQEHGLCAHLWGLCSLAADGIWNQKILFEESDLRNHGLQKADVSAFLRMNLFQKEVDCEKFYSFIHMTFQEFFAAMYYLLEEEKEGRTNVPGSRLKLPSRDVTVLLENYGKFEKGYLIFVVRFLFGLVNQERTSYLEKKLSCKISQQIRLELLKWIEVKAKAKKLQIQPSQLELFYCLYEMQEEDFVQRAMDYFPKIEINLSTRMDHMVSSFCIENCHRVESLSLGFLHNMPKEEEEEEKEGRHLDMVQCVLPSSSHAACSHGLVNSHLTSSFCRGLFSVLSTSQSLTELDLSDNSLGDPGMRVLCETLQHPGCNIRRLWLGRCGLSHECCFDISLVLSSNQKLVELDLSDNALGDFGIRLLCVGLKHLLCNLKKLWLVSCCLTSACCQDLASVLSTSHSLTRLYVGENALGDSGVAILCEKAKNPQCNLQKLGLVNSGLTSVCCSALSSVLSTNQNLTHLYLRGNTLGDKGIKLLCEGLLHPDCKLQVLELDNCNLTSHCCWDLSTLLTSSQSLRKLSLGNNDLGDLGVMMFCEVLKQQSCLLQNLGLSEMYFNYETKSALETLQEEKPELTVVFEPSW", "assay": "Inhibition of IL-1β release, NLRP3 inflammasome activation assay in HMDM", "assay_type": "cell-based", "settings": "commercial compounds (Table 9), read-out: HMDM IC50 vs NLRP3", "experimental": "as §1\n(§5) To generate HMDM, human monocytes are isolated from buffy coat blood using Ficoll-Plaque Plus (GE Healthcare) and density centrifugation. CD14^+ cell selection is performed using MACS magnetic beads (Miltenyl Biotec).\n(§6) HMDM are seeded at 1×10^5/ml. […] Medium is removed and replaced with serum free medium (SFM) containing test compound 30 min prior to NLRP3 stimulation. […] ATP can be sourced from Sigma Aldrich, nigericin and MSU from Invivogen and LeuLeu-Ome from Chem-Impex International.\nas §4", "units": {"IC50": "µM"}, "values": [
      {"compound": "COc1ccc2c(c1)C(=O)N(CCc1ccc(S(=O)(=O)NC(=O)NC3CCCCC3)cc1)C(=O)C2(C)C", "note": "[Gliquidone, N-(cyclohexylcarbamoyl)-4-(2-(7-methoxy-4,4-dimethyl-1,3-dioxo-3,4-dihydroisoquinolin-2(1H)-yl)ethyl)benzenesulfonamide, reference compound]", "IC50": 32}
    ]},
    {"target": "NLRP3 inflammasome (Homo sapiens, UniProt Q96P20)", "assay": "Inhibition of IL-1β release, NLRP3 inflammasome activation assay in HMDM", "assay_type": "cell-based", "settings": "inhibition of IL-1β release, class symbols, read-out: Avg. IL-1β IC50 HMDM", "experimental": "as §1, §5, §6, §4", "units": {"IC50": "µM"}, "values": [
      {"compound": "CC(C)c1cc(Cl)cc(C(C)C)c1NC(=O)NS(=O)(=O)c1cc(C(C)(C)O)n(C)n1", "note": "[sodium ((4-chloro-2,6-diisopropylphenyl)carbamoyl)((5-(2-hydroxypropan-2-yl)-1-methyl-1H-pyrazol-3-yl)sulfonyl)amide]", "IC50": "< 0.1"},
      {"compound": "[N-]=[N+]=Nc1cccc(S(=O)(=O)NC(=O)Nc2c3c(cc4c2CCC4)CCC3)c1", "note": "[3-Azido-N-((1,2,3,5,6,7-hexahydro-s-indacen-4-yl)carbamoyl)benzenesulfonamide]", "IC50": "< 1"},
      {"compound": "CC(C)(O)c1coc(S(=O)(=O)NC(=O)Nc2cccc3cccnc23)c1", "note": "[4-(2-hydroxypropan-2-yl)-N-(quinolin-8-ylcarbamoyl)furan-2-sulfonamide]", "IC50": "< 10"}
    ]}
  ]
}
